Experimental data: patent publication US9629835B1, “Method for treating tau-associated diseases” (NATIONAL TAIWAN NORMAL UNIVERSITY, priority 2016, dated 2017)

What was measured:
[1] = test system: ΔK280 tauRD-DsRed 293 cells; assay: DsRed fluorescence (tau aggregation) in Tet-On ΔK280 tauRD-DsRed 293 cells, high content analysis; assay type: cell-based, human; conditions: for DsRed fluorescence intensity relative to untreated cells (100%): 10 μM, 8 h pre-treatment, doxycycline 3 days
Protocol: We used HEK-293 human cells expressing a DsRed-tagged proaggregation mutant (ΔK280) of the C-terminal repeat domain of tau (tauRD-Gln^244-Glu^372 of the longest tau^441 isoform). The recombinant tauRD-DsRed construct was under the control of a hybrid human cytomegalovirus (CMV)/TetO2 promoter that can be induced by adding doxycycline. The Tet-On ΔK280tauRD-DsRed293 cells were grown in medium containing blasticidin (5 μg/mL) and hygromycin (100 μg/mL) and were used for the following evaluation.
(§1) TauRD-DsRed 293 cells were plated into 96-well plates, grown for 24 h, and treated with 0.1, 1, 10 μM of congo red (a known tau aggregation inhibitor), compound (I), compound (II), and compound (III) (SB216763) for 8 h. Then doxycycline (Dox; 1 μg/mL) was added for 3 days and DsRed fluorescence was assessed using a high content analysis system (HCA) system (ImageXpressMICRO, Molecular Devices).
According to the fluorescence microscopy images of untreated cells, and cells treated with congo red, compound (I), compound (II), and SB216763, the quantification results are shown in FIG. 1 which were analyzed related to 100% fluorescence intensity of the untreated cells. […] Based on the results that described above, compound (I) and compound (II) have the ability to decrease tau-aggregation in tauRD-DsRed 293 cells (*p<0.05, **p<0.01).

[2] = Cytotoxicity in tauRD-DsRed 293 cells; assay type: cell-based; conditions: human, 50% of viability
Protocol: as §1
Also, IC50 cytotoxicity of tauRD-DsRed 293 cells is shown in FIG. 2, wherein the standard line represents 50% of viability.

Recombinant human GSK-3β = target: T1, Recombinant human GSK-3β (Homo sapiens, UniProt P49841); assay: GSK-3β kinase activity, ADP-Glo Kinase Assay; assay type: biochemical
T1 construct: purchased Promega V1991
Protocol: GSK-3β kinase activity was measured in the presence of the tested compounds (I) and (II) using ADP-Glo™ Kinase Assay system (Promega). Recombinant human GSK-3β (Product code V1991, Promega) was used as the enzyme source, and the GSK-3β substrate was derived from human muscle glycogen synthase 1 peptide ([…](pS)EDEEE) which corresponded to a region of glycogen synthase that was phosphorylated by GSK-3β. Reactions were performed at 30° C. for 30 minutes in the 25 μL mixture that contained 25 μM ATP, 0.2 mg/mL GSK-3β substrate, 1 ng of GSK-3β, and serial dilutions of compound (I), compound (II), or compound (III). Kinase activity data were measured as relative light units (RLU) directly correlated with the amount of ADP produced.
The IC50 values of compound (I), compound (II), and compound (III) were determined by using SigmaPLOT software. […] When the concentration of compound (I) and compound (II) were […] μM, the residual activities of GSK-3β of compounds (I) and (II) were 36.1±1.1%, and 90.9±6.6%, respectively.

[3] = test system: mouse hippocampal primary culture cells; assay: Mouse hippocampal primary culture under tau toxicity induced by Wortmannin and GF 109203X; assay type: cell-based; conditions: 1 μM, 12 hours, with 10 nM Wortmannin and GF 109203X
Protocol: The mouse hippocampal primary culture cells were isolated from the hippocampi of C57BL/6J mouse embryos at days 16-18. On days in vitro (DIV) 4 and 7, 2 μM of cytosine arabinoside was added to the culture medium to reduce the glial cell populations. On DIV 9, the cells were treated with 10 nM of Wortmannin (WT) and GF 109203X (GFX) to induce tau hyperphosphorylation to mimic an AD condition.
1 μM of compound (I) or compound (II) were then added to the cells at DIV 9. Cells were harvested 12 hours later for immunocytochemical staining with NeuN (for neuron) and MAP2 (for neurite morphology) antibodies.
The quantification of neuron numbers (NeuN relative expression levels), neurite outgrowth, and the relative number of neuron branches are shown in FIG. 7 to FIG. 9 (*, vs. control; #, vs. WT+GFX. * p<0.05; **/##p<0.01; ###p<0.001). […] The results indicated significant neuronal protective effects of compound (I) and compound (II).

GSK-3β = assay: Western blot of total GSK-3β and phosphorylated GSK-3β (Ser9) in tauRD-DsRed SH-SY5Y cells; assay type: cell-based, human; conditions: 10 μM
Protocol: We used human neuroblastoma cells (SH-SY5Y) expressing a DsRed-tagged proaggregation mutant (ΔK280) of the C-terminal repeat domain of tau (tauRD-Gln^244-Glu^372 of the longest tau^441 isoform). The recombinant tauRD-DsRed construct was under the control of a hybrid human cytomegalovirus (CMV)/TetO2 promoter that can be induced by adding doxycycline. The Tet-On ΔK280 tauRD-DsRed SH-SY5Y cells were grown in medium containing blasticidin (5 μg/mL) and hygromycin (100 μg/mL) and were then used for the following evaluation. […]
First, SH-SY5Y tauRD-DsRed cells were seeded in 6-well plates (1×10^5/well) in a medium containing all-trans retinoic acid ([…] Sigma) for inducing the neural differentiation. […] Next, immunoreactive bands were detected using horseradish peroxidase-conjugated goat anti-mouse, goat anti-rabbit, or donkey anti-goat IgG antibodies (1:5000; GeneTex) and chemiluminescent substrate (Millipore) for evaluating the expression levels thereof in cells.
The expression levels of total GSK-3β and phosphorylated GSK-3β are shown in FIG. 3 and the quantifications thereof are shown in FIG. 4 (*p<0.05, ***p<0.001). […]

T1 sequence (P49841 whole entry): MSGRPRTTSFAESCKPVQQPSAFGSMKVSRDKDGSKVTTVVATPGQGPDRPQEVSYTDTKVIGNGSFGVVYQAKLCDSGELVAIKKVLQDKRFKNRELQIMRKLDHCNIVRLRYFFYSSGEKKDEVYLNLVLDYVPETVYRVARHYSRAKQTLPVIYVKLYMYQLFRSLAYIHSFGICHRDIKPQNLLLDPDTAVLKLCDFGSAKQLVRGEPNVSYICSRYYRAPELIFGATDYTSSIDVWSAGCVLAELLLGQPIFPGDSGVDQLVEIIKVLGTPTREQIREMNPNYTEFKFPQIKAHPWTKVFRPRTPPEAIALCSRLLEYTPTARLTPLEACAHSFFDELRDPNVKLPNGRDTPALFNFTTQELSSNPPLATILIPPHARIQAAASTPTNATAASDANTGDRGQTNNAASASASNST

SMILES	DsRed fluorescence intensity relative to untreated cells (100%) [1] [%]	effect on tauRD-DsRed fluorescence ([1]; 0.1, 1, 10 μM)	IC50 [2] [µM]	remaining activity at 0.018 µM (Recombinant human GSK-3β; compound concentration 0.018 μM, read-out: residual activity of GSK-3β) [%]	IC50 (Recombinant human GSK-3β; recombinant human GSK-3β, 25 μM ATP, 30° C., 30 minutes) [µM]	neuronal protective effect (NeuN neuron number, neurite length, neurite branches) [3]	total GSK-3β expression vs untreated cells (GSK-3β)
Nc1c(/N=N/c2ccc(-c3ccc(/N=N/c4cc(S(=O)(=O)O)c5ccccc5c4N)cc3)cc2)cc(S(=O)(=O)O)c2ccccc12 [congo red]	110						
CN1CC(C2=C(c3ccc(Cl)cc3Cl)C(=O)NC2=O)c2ccccc21 (centres unmarked) [compound (III), reference compound]		no effect					
Cc1ccc(-c2cc(-c3ccncc3)nc3ccccc23)cc1 [compound (I)]	116		25.7	36.1 ± 1.1	0.0002	alleviate the reduction of neuronal survival rate, neurite length, and/or neurite branches	remained about the same without significant changes
